# Molecular target: SMYD3 (Homo sapiens (Human), UniProt Q9H7B4)
# Test: SMYD3 biochemical assay (SMYD3 enzyme assay on MEKK2 protein substrate, 3H-SAM scintillation proximity assay)
# Details: read-out: SMYD3 Biochem IC50
# In short: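 Detection used scintillation proximity beads to capture ³H-methylated GST-MEKK2 after quench with 100 uM final cold SAM. The reaction was started by SAM/MEKK2 addition after a 30 min RT compound–enzyme preincubation. Enzyme was tag-free full-length human SMYD3 from E. coli, in buffer of 25 mM Tris-Cl pH 8.0, 1 mM TCEP, 0.005% BSG, 0.005% Tween 20.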
# Chain of SMYD3 (Q9H7B4 whole entry): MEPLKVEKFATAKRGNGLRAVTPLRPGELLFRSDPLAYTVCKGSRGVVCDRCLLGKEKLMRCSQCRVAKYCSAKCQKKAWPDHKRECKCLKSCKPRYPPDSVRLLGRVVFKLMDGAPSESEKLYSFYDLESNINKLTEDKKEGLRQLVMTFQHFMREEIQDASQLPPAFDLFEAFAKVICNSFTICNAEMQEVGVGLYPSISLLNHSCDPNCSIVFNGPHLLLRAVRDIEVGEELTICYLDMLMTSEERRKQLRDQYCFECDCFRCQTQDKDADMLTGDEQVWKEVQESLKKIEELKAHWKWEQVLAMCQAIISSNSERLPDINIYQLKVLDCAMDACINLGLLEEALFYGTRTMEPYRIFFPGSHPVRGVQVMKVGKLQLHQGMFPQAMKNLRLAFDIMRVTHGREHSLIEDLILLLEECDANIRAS
row,IC50,Compound
1,> 100 µM,"N[C@H]1CC[C@H](NC(=O)c2ccc3nonc3c2)CC1 [compound 287, N-((1r,4r)-4-aminocyclohexyl)benzo[c][1,2,5]oxadiazole-5-carboxamide]"
2,> 100 µM,"NCCC(=O)N[C@H]1CC[C@H](NC(=O)c2cnccc2N)CC1 [compound 288, 4-amino-N-((1r,4r)-4-(3-aminopropanamido)cyclohexyl)nicotinamide]"
3,> 100 µM,"Nc1ccncc1C(=O)N[C@H]1CC[C@H](N)CC1 [compound 289, 4-amino-N-((1r,4r)-4-aminocyclohexyl)nicotinamide]"
4,> 100 µM,"NCCC(=O)N[C@H]1CC[C@H](NC(=O)c2cccc3[nH]ccc23)CC1 [compound 290, N-((1r,4r)-4-(3-aminopropanamido)cyclohexyl)-1H-indole-4-carboxamide]"
5,> 100 µM,"N[C@H]1CC[C@H](NC(=O)c2cccc3[nH]ccc23)CC1 [compound 291, N-((1r,4r)-4-aminocyclohexyl)-1H-indole-4-carboxamide]"
6,> 100 µM,"N[C@H]1CC[C@H](NC(=O)c2ccnc(O)c2)CC1 [compound 292, N-((1r,4r)-4-aminocyclohexyl)-2-hydroxyisonicotinamide]"
7,> 100 µM,"NCCC(=O)N[C@H]1CC[C@H](NC(=O)c2ccc(O)nc2)CC1 [compound 294, N-((1r,4r)-4-(3-aminopropanamido)cyclohexyl)-6-hydroxynicotinamide]"
8,> 100 µM,"N[C@H]1CC[C@H](NC(=O)c2ccc(O)nc2)CC1 [compound 295, N-((1r,4r)-4-aminocyclohexyl)-6-hydroxynicotinamide]"
9,> 100 µM,"CC(NC(=O)c1ccccn1)C1CCN(C(=O)[C@H](C)N)CC1 (stereo partly drawn) [compound 296, N-(1-(1-(L-alanyl)piperidin-4-yl)ethyl)picolinamide]"
10,44.2 µM,"NCCC(=O)NC1CCC(NC(=O)c2ccccn2)CC1 (stereo not shown) [compound 297, N-(4-(3-aminopropanamido)cyclohexyl)picolinamide]"
11,> 100 µM,"N[C@H]1CC[C@H](NC(=O)c2cnccn2)CC1 [compound 298, N-((1r,4r)-4-aminocyclohexyl)pyrazine-2-carboxamide]"
12,> 100 µM,"Cc1cccc(Cn2nc(C(C)(C)C)cc2C(=O)NC(C)C2CCN(C(=O)[C@H](C)N)CC2)c1 (stereo partly drawn) [compound 299, N-(1-(1-(L-alanyl)piperidin-4-yl)ethyl)-3-(tert-butyl)-1-(3-methylbenzyl)-1H-pyrazole-5-carboxamide]"
13,> 100 µM,"Cc1cccc2cc(C(=O)NC(C)C3CCN(C(=O)[C@H](C)N)CC3)[nH]c12 (stereo partly drawn) [compound 300, N-(1-(1-(L-alanyl)piperidin-4-yl)ethyl)-7-methyl-1H-indole-2-carboxamide]"
14,> 100 µM,"COc1cccc(C(=O)NC(C)C2CCN(C(=O)[C@H](C)N)CC2)n1 (stereo partly drawn) [compound 301, N-(1-(1-(L-alanyl)piperidin-4-yl)ethyl)-6-methoxypicolinamide]"
15,> 100 µM,"COc1cnc(C(=O)NC(C)C2CCN(C(=O)[C@H](C)N)CC2)cn1 (stereo partly drawn) [compound 302, N-(1-(1-(L-alanyl)piperidin-4-yl)ethyl)-5-methoxypyrazine-2-carboxamide]"
16,> 100 µM,"NCCC(=O)N[C@H]1CC[C@H](NC(=O)[C@H]2CC[C@H](N)CC2)CC1 [compound 303, (1r,4r)-4-amino-N-((1r,4r)-4-(3-aminopropanamido)cyclohexyl)cyclohexane-1-carboxamide]"
17,> 100 µM,"N[C@H]1CC[C@H](NC(=O)[C@H]2CC[C@H](N)CC2)CC1 [compound 304, (1r,4r)-4-amino-N-((1r,4r)-4-aminocyclohexyl)cyclohexane-1-carboxamide]"

row,IC50,Compound
1,55.9 µM,"CC(NC(=O)[C@@H]1C[C@H](F)CN1)C1CCN(C(=O)[C@H](C)N)CC1 (stereo partly drawn) [compound 305, (2S,4S)-N-(1-(1-(L-alanyl)piperidin-4-yl)ethyl)-4-fluoropyrrolidine-2-carboxamide]"
2,48.1 µM,"CC(NC(=O)[C@H]1Cc2ccccc2CN1)C1CCN(C(=O)[C@H](C)N)CC1 (stereo partly drawn) [compound 306, (3R)-N-(1-(1-(L-alanyl)piperidin-4-yl)ethyl)-1,2,3,4-tetrahydroisoquinoline-3-carboxamide]"
3,> 100 µM,"N[C@H]1CC[C@H](NC(=O)c2cccc3c2OC(F)(F)O3)CC1 [compound 307, N-((1r,4r)-4-aminocyclohexyl)-2,2-difluorobenzo[d][1,3]dioxole-4-carboxamide]"
4,> 100 µM,"N[C@H]1CC[C@H](NC(=O)c2ccncc2F)CC1 [compound 308, N-((1r,4r)-4-aminocyclohexyl)-3-fluoroisonicotinamide]"
5,> 100 µM,"CC(NC(=O)c1cncs1)C1CCN(C(=O)[C@H](C)N)CC1 (stereo partly drawn) [compound 309, N-(1-(1-(L-alanyl)piperidin-4-yl)ethyl)thiazole-5-carboxamide]"
6,> 100 µM,"CC(NC(=O)c1ccc(O)cn1)C1CCN(C(=O)[C@H](C)N)CC1 (stereo partly drawn) [compound 310, N-(1-(1-(L-alanyl)piperidin-4-yl)ethyl)-5-hydroxypicolinamide]"
7,> 100 µM,"CC(NC(=O)C1=NNC(=O)CC1)C1CCN(C(=O)[C@H](C)N)CC1 (stereo partly drawn) [compound 311, N-(1-(1-(L-alanyl)piperidin-4-yl)ethyl)-6-oxo-1,4,5,6-tetrahydropyridazine-3-carboxamide]"
8,> 100 µM,"CC(NC(=O)c1n[nH]c2ccccc12)C1CCN(C(=O)[C@H](C)N)CC1 (stereo partly drawn) [compound 312, N-(1-(1-(L-alanyl)piperidin-4-yl)ethyl)-1H-indazole-3-carboxamide]"
9,70.7 µM,"CC(NC(=O)Cc1cc(F)cc(F)c1)C1CCN(C(=O)[C@H](C)N)CC1 (stereo partly drawn) [compound 313, N-(1-(1-(L-alanyl)piperidin-4-yl)ethyl)-2-(3,5-difluorophenyl)acetamide]"
10,> 100 µM,"CC(NC(=O)Cc1cccnc1)C1CCN(C(=O)[C@H](C)N)CC1 (stereo partly drawn) [compound 314, N-(1-(1-(L-alanyl)piperidin-4-yl)ethyl)-2-(pyridin-3-yl)acetamide]"
11,> 100 µM,"CC(NC(=O)Cc1cncnc1)C1CCN(C(=O)[C@H](C)N)CC1 (stereo partly drawn) [compound 315, N-(1-(1-(L-alanyl)piperidin-4-yl)ethyl)-2-(pyrimidin-5-yl)acetamide]"
12,> 100 µM,"CC(NC(=O)Cn1ccnc1)C1CCN(C(=O)[C@H](C)N)CC1 (stereo partly drawn) [compound 316, N-(1-(1-(L-alanyl)piperidin-4-yl)ethyl)-2-(1H-imidazol-1-yl)acetamide]"
13,> 100 µM,"NCCC(=O)N[C@H]1CC[C@H](NC(=O)c2cn3ccsc3n2)CC1 [compound 317, N-((1r,4r)-4-(3-aminopropanamido)cyclohexyl)imidazo[2,1-b]thiazole-6-carboxamide]"
14,> 100 µM,"N[C@H]1CC[C@H](NC(=O)c2cn3ccsc3n2)CC1 [compound 318, N-((1r,4r)-4-aminocyclohexyl)imidazo[2,1-b]thiazole-6-carboxamide]"
15,> 100 µM,"Cc1ncc(C(=O)N[C@H]2CC[C@H](N)CC2)cn1 [compound 320, N-((1r,4r)-4-aminocyclohexyl)-2-methylpyrimidine-5-carboxamide]"
16,16.6 µM,"NCCC(=O)N[C@H]1CC[C@H](NC(=O)c2ccnc(N)c2)CC1 [compound 321, 2-amino-N-((1r,4r)-4-(3-aminopropanamido)cyclohexyl)isonicotinamide]"
17,> 100 µM,"Nc1cc(C(=O)N[C@H]2CC[C@H](N)CC2)ccn1 [compound 322, 2-amino-N-((1r,4r)-4-aminocyclohexyl)isonicotinamide]"

# Reference: US10266526B2, “Substituted 1,2,3-triazoles as SMYD inhibitors for treating cancer” (EPIZYME, INC., priority 2014, dated 2019)
